From patent US20100130736A1, “METHODS OF CREATING AN INDEX” (priority 2008, published 2010)
Read-outs that look alike come from different tables or passages of the source. Where no end group is shown, it is not given here.

Tests used:
Format in all cases: cell-based, human
A549 cells [1] = assay: Epic DMR agonist mode (primary profile, target panning) in A549 cells; conditions: for ligand-induced DMR signal (second ligand panel): FIG. 8: 40 μM pinacidil, 250 μg/ml poly (I:C), 8 μM PMA, 16 μM forskolin
Excerpt: (§1) Epic® wavelength interrogation system (Corning Inc., Corning, N.Y.) was used for whole cell sensing. This system consists of a temperature-control unit, an optical detection unit, and an on-board liquid handling unit with robotics. The detection unit is centered on integrated fiber optics, and enables kinetic measures of cellular responses with a time interval of ±15 sec.
(§2) For biosensor cellular assays, molecule solutions were made by diluting the stored concentrated solutions with the HBSS (1× Hanks balanced salt solution, plus 20 mM Hepes, pH 7.1), and transferred into a 384 well polypropylene molecule storage plate to prepare a molecule source plate. Both molecule and marker source plates were made separately when a two-step assay was performed. In parallel, the cells were washed twice with the HBSS and maintained in 30 μl of the HBSS to prepare a cell assay plate. Both the cell assay plate and the molecule and marker source plate(s) were then incubated in the hotel of the reader system. After ˜1 hr of incubation the baseline wavelengths of all biosensors in the cell assay microplate were recorded and normalized to zero. Afterwards, a 2 to 10 minute continuous recording was carried out to establish a baseline, and to ensure that the cells reached a steady state. Cellular responses were then triggered by pipetting 10 μl of the marker solutions into the cell assay plate using the on-board liquid handler.
First, a panel of ligands targeting GPCRs, each at 10 μM concentration, was chosen, and examined their actions on the A549 cells using DMR measurements with the Epic® system. The ligand panel included the four P2Y agonists ADP, […], UTP and UDP, the adenosine receptor agonist adenosine, the calcium sensing receptor agonist spermine, the histamine receptor agonist histamine, the adrenergic receptor agonist epinephrine, the free fatty acid receptor agonist elaidic acid, the lipoxin receptor agonist lipoxin A4, the bradykinin receptor agonist bradykinin, the adrenodullin receptor agonist adrenodullin, the PAR1 agonist SFLLR-amide, the angiotensin receptor agonist angiotensin, the neuropeptide Y receptor agonist neuropeptide Y, and the PAR2 agonist SLIGKV-amide.
Next, a second ligand panel was chosen, and examined their actions on the A549 cells using DMR measures with the Epic® system. The panel included the protein kinase C activator PMA, the endogenous KATP ion channel activator pinacidil, the adenylyl cyclase activator forskolin, and endogenous Toll-like receptor (TLR) activator poly(I:C).
A DMR index was generated for four ligand molecules. Quiescent A431 and proliferating A549 cells were separately exposed to the ligand molecules for about 1 hr to generate their primary profiles, followed by stimulation with each marker at a fixed concentration (as mentioned in FIGS. 7 and 8) for another 1 hr or so to generate secondary profiles of the molecule against the panels of markers in both types of cells. Next, one or more specific DMR parameters were chosen as a readout for plotting the DMR index of the molecule. For the pinacidil DMR response in A549, the amplitude of the N-DMR (i.e., the amplitude 30 min after stimulation) was chosen. For the poly(I:C) DMR response in A549, the amplitude of the late DMR (i.e., the amplitude 50 min after stimulation) was chosen. For the PMA response in A549, the late DMR amplitude (i.e., the amplitude 50 min after stimulation) was chosen. For the SLIGKV-amide DMR response in A549, the P-DMR amplitude (i.e., the amplitude 20 min after stimulation) was chosen. For the forskolin response in A549 cells, the P-DMR amplitude (i.e., the amplitude 50 min after stimulation) was chosen. For the histamine response in A549, both the early DMR amplitude (i.e., amplitude 10 min after stimulation) and the late response (i.e., the amplitude 30 min after stimulation) were chosen. For the epinephrine response in A431, the P-DMR amplitude (i.e., the amplitude 50 min after stimulation) was chosen.

quiescent A431 cells = assay: Epic label-free DMR two-step assay, antagonist mode: modulation of marker-induced DMR signals in quiescent A431 cells
Procedure: (§3) Cells were typically grown using ˜1 to 2×10^4 cells per well at passage 3 to 15 suspended in 50 μl of the corresponding culture medium in the biosensor microplate, and were cultured at 37° C. under air/5% CO2 for ˜1 day. Except for A431, which was subject to ˜20 hr starvation through continuous culture in the serum-free DMEM, the other cell types were directly assayed without starvation. The confluency for all cells at the time of assays was ˜95% to 100%.
as §1, §2
To study the influence of molecules on a marker-induced response, a second stimulation with the marker at a fixed dose (typically at EC80 or EC100) was applied. The resonant wavelengths of all biosensors in the microplate were normalized again to establish a second baseline, right before the second stimulation. The two stimulations were usually separated by ˜1 hr. All studies were carried out at a controlled temperature (28° C.). At least two independent sets of experiments, each with at least three replicates, were performed. […]
A first panel of markers was contacted with quiescent A431 cells at concentrations close to each of the marker's EC80 or EC100, and DMR measurements were obtained with and EPIC® system. This panel of markers was selected from a library of markers identified in A431 cells using Epic® cellular assays. This panel included epidermal growth factor (EGF), epinephrine, nicotinic acid, and histamine. Each of these markers leads to a wide array of cell signaling. […] Each DMR signal represents an averaged response of 4 replicates.

A549 cells [2] = assay: Epic label-free DMR two-step assay, antagonist mode: modulation of marker-induced DMR signals in A549 cells
Procedure: as §3, §1, §2
To study the influence of molecules on a marker-induced response, a second stimulation with the marker at a fixed dose (typically at EC80 or EC100) was applied. The resonant wavelengths of all biosensors in the microplate were normalized again to establish a second baseline, right before the second stimulation. The two stimulations were usually separated by ˜1 hr. All studies were carried out at a controlled temperature (28° C.). At least two independent sets of experiments, each with at least three replicates, were performed.
A second panel of markers was contacted with A549 cells at concentrations close to each of the marker's EC80 or EC100, and DMR measurements were obtained with and EPIC® system. This panel included poly(I:C), SLIGKV-amide, pinacidil, PMA, histamine, and forskolin. Each of these markers also leads to a wide array of cell signaling. Using Epic® cellular assays in conjunction with chemical biology and cell biology approach similar to the EGFR DMR mentioned above, we have determined the pathway(s) and network interaction(s) that is accounted for each marker-induced DMR signal in A549 cells. The main observations are summarized below. Poly(I:C) is an agonist for endogenous Toll-like receptor(s) in A549, whose activation leads to IKK pathway and AKT pathway. SLIGKV-amide is an agonist for endogenous protease activated receptor subtype 2 (PAR2) in A549, whose activation leads to Gq-, Gi- and G12/13-mediated signaling. Pinacidil is an opener for endogenous ATP-sensitive potassium (KATP) ion channel in A549, whose activation leads to Rho- and JAK-mediated signaling. PMA is an activator for protein kinase C (PKC), whose activation leads to PKC pathway and degranulation. Histamine is a natural agonist for endogenous histamine receptors (dominantly H1R, and possibly H3R), whose activation leads to dual signaling, possibly through Gq and Gi mediated signaling in A549. Forskolin is an activator for adenylyl cyclases, whose activation leads to cAMP-PKA pathway in A549. […] Each DMR signal represents an averaged response of 4 replicates. […]

[3] = A549, each ligand at 10 μM, FIGS. 3A and 3B
[4] = quiescent A431, 32 nM EGF, ligand 10 μM, about 1 hr pretreatment
[5] = 10 μM, score scaled from percent modulation (10% = 1)
[6] = A431, ~1 hr pretreatment with the molecule
[7] = quiescent A431, 10 μM, score scaled from percent modulation (10% = 1)
[8] = ~1 hr pretreatment with the molecule

Nc1ncnc2c1ncn2[C@@H]1O[C@H](COP(=O)(O)OP(=O)(O)O)[C@@H](O)[C@H]1O [ADP]
ligand-induced DMR signal (GPCR ligand panel) (A549 cells [1]; [3]): robust DMR signals

COc1cc2ncnc(Nc3cccc(Cl)c3)c2cc1OC [AG1478]
effect on the EGF response / DMR signal induced by EGF (in words) (quiescent A431 cells; [4]): almost completely blocked

Nc1ncnc2c1ncn2[C@@H]1O[C@H](COP(=O)(O)OP(=O)(O)OP(=O)(O)O)[C@@H](O)[C@H]1O [AT]
ligand-induced DMR signal (GPCR ligand panel) (A549 cells [1]; [3]): robust DMR signals

C#Cc1cccc(Nc2ncnc3cc(OC)c(OC)cc23)c1 [BML-265]
effect on the EGF response / DMR signal induced by EGF (in words) (quiescent A431 cells; [4]): almost completely blocked

CNCCNS(=O)(=O)c1cccc2cnccc12 [H-8]
modulation index score, PMA (A549 cells [2]; [5]): 2.2 | modulation index score, SLIGKV-amide (A549 cells [2]; [5]): 3.2 | modulation index score, forskolin (A549 cells [2]; [5]): 2 | modulation index score, histamine (early P-DMR) (A549 cells [2]; [5]): 3.8 | modulation index score, histamine (late P-DMR) (A549 cells [2]; [5]): 6.5 | modulation index score, pinacidil (A549 cells [2]; [5]): −7.2 | modulation index score, poly(I:C) (A549 cells [2]; [5]): 1.8 | effect on the epinephrine response (in words) (quiescent A431 cells; [6]): less effective at attenuating | effect on the histamine response (in words) (quiescent A431 cells; [6]): less effective at attenuating | modulation index score, EGF (N-DMR) (quiescent A431 cells; [7]): −2 | modulation index score, EGF (P-DMR) (quiescent A431 cells; [7]): 0.3 | modulation index score, epinephrine (quiescent A431 cells; [7]): −1.6 | modulation index score, histamine (quiescent A431 cells; [7]): 1.6 | modulation index score, nicotinic acid (quiescent A431 cells; [7]): 1

O=S(=O)(c1cccc2cnccc12)N1CCCNCC1 [HA1077]
modulation of the PMA-induced DMR response (A549 cells [2]; molecule 10 μM, 8 μM PMA, late DMR amplitude 50 min after stimulation): +36% | modulation of the SLIGKV-amide-induced DMR response (A549 cells [2]; molecule 10 μM, 8 μM SLIGKV-amide, P-DMR amplitude 20 min after stimulation): +22% | modulation of the histamine-induced DMR response (early P-DMR) (A549 cells [2]; molecule 10 μM, 10 μM histamine, amplitude 10 min after stimulation): +26% | modulation of the histamine-induced DMR response (late P-DMR) (A549 cells [2]; molecule 10 μM, 10 μM histamine, amplitude 30 min after stimulation): +55% | modulation of the forskolin-induced DMR response (A549 cells [2]; molecule 10 μM, 16 μM forskolin, P-DMR amplitude 50 min after stimulation): +18% | modulation of the poly(I:C)-induced DMR response (A549 cells [2]; molecule 10 μM, 250 μg/ml poly(I:C), late DMR amplitude 50 min after stimulation): +18% | effect on the PMA response (in words) (A549 cells [2]; [8]): significantly potentiated | effect on the histamine response (in words) (A549 cells [2]; [8]): significantly potentiated | effect on the pinacidil response (in words) (A549 cells [2]; [8]): almost completely attenuated | primary profile of the molecule (DMR signal triggered) (A549 cells [1]; A549, 10 μM, about 1 hr): N-DMR signal

CCCCCCCCCCCCCC(=O)O[C@@H]1[C@@H](C)[C@@]2(O)[C@@H](C=C(CO)C[C@]3(O)C(=O)C(C)=C[C@@H]23)[C@@H]2C(C)(C)[C@]12OC(C)=O [PMA, Phorbol 12-myristate 13-acetate]
ligand-induced DMR signal (second ligand panel) (A549 cells [1]; A549): robust DMR signals

N#CC(=C(/N)Sc1ccccc1N)/C(C#N)=C(\N)Sc1ccccc1N [U0126]
effect on the N-DMR of the EGF DMR signal (in words) (quiescent A431 cells): significantly and selectively attenuated | effect on the RP-DMR of the EGF DMR signal (in words) (quiescent A431 cells): significantly and selectively attenuated

O=c1ccn([C@@H]2O[C@H](COP(=O)(O)OP(=O)(O)O)[C@@H](O)[C@H]2O)c(=O)[nH]1 [UDP]
ligand-induced DMR signal (GPCR ligand panel) (A549 cells [1]; [3]): robust DMR signals

O=c1ccn([C@@H]2O[C@H](COP(=O)(O)OP(=O)(O)OP(=O)(O)O)[C@@H](O)[C@H]2O)c(=O)[nH]1 [UTP]
ligand-induced DMR signal (GPCR ligand panel) (A549 cells [1]; [3]): robust DMR signals

Nc1ncnc2c1ncn2[C@@H]1O[C@H](CO)[C@@H](O)[C@H]1O [adenosine]
ligand-induced DMR signal (GPCR ligand panel) (A549 cells [1]; [3]): robust DMR signals

CCCCCCCC/C=C/CCCCCCCC(=O)O [elaidic acid]
ligand-induced DMR signal (GPCR ligand panel) (A549 cells [1]; [3]): robust DMR signals

CNC[C@H](O)c1ccc(O)c(O)c1 [epinephrine]
ligand-induced DMR signal (GPCR ligand panel) (A549 cells [1]): robust DMR signals

NCCc1c[nH]cn1 [histamine]
ligand-induced DMR signal (GPCR ligand panel) (A549 cells [1]; [3]): robust DMR signals

CCCCC[C@H](O)/C=C/C=C\C=C\C=C\[C@@H](O)[C@@H](O)CCCC(=O)O [lipoxin A4]
ligand-induced DMR signal (GPCR ligand panel) (A549 cells [1]; [3]): robust DMR signals

CC(N/C(=N\C#N)Nc1ccncc1)C(C)(C)C (stereo not drawn) [pinacidil]
ligand-induced DMR signal (second ligand panel) (A549 cells [1]; A549): robust DMR signals

CC(=O)c1c(O)c(C)c(O)c(Cc2c(O)c3c(c(C(=O)/C=C/c4ccccc4)c2O)OC(C)(C)C=C3)c1O [rottlerin]
effect on the N-DMR of the EGF DMR signal (in words) (quiescent A431 cells; [4]): part of the early N-DMR event | effect on the early P-DMR event of the EGF DMR signal (in words) (quiescent A431 cells; [4]): specifically caused the truncation

NCCCNCCCCNCCCN [spermine]
ligand-induced DMR signal (GPCR ligand panel) (A549 cells [1]; [3]): robust DMR signals

SFLLR-amide
ligand-induced DMR signal (GPCR ligand panel) (A549 cells [1]; [3]): robust DMR signals

SLIGKV-NH2
ligand-induced DMR signal (GPCR ligand panel) (A549 cells [1]; [3]): robust DMR signals

adrenodullin: adrenodullin receptor agonist (YRQSMNNFQGLRSFGCRFGTCTVQKLAHQIYQFTDKDKDNVAPRSKISPQGY; ends and bridges not checked; cysteine pairing not given here; UniProt P35318 95-146, looked up)
ligand-induced DMR signal (GPCR ligand panel) (A549 cells [1]; [3]): robust DMR signals

angiotensin
ligand-induced DMR signal (GPCR ligand panel) (A549 cells [1]; [3]): robust DMR signals

neuropeptide Y: neuropeptide Y receptor agonist
ligand-induced DMR signal (GPCR ligand panel) (A549 cells [1]; [3]): robust DMR signals

poly(I:C)
ligand-induced DMR signal (second ligand panel) (A549 cells [1]; A549): robust DMR signals
